# Measured values from patent US11666558B2, “Methods of treating intraocular pressure with activators of Tie-2” (EyePoint Pharmaceuticals, Inc., priority 2015, dated 2023).
# Like-named read-outs stand apart in the source and are kept apart here.
# Assay: Ocular tissue concentrations (aqueous humor, vitreous humor, iris, retina, choroid, cornea) after topical ocular, subcutaneous and intravitreal administration
# Assay type: in vivo, New Zealand White rabbits
# Settings: New Zealand White, rabbit; for concentration at 2 h / concentration at 4 h / concentration at 0.5 h / concentration at 1 h: subcutaneous, 5 mg/kg/dose, subcutaneous 5 mg/kg/dose; for concentration at 6 hr / concentration at 24 hr / concentration at 48 hr / concentration at 72 hr: other: intravitreal, 2.5 mg/eye
# Experimental: To measure the concentration of Compound 1 in plasma and ocular tissues following topical ocular, subcutaneous, and intravitreal administration, New Zealand White rabbits were administered Compound 1, and plasma and ocular samples were collected at pre-determined time points. Compound 1 formulations were prepared fresh on each day of dosing.
# Ocular tissue samples from both eyes of each animal were collected and weights were recorded. Plasma and ocular tissue sample concentrations of Compound 1 were determined by LC-MS/MS.
# New Zealand White rabbits weighing 2.5 to 3.5 kg were used on this study. Rabbits were housed one per cage. Animals were not fasted and only healthy animals with no ocular illness were used. Two rabbits per group were sacrificed at each of four ocular tissue sampling time points for a total of eight rabbits per group.
# Animals were anesthetized for ocular (topical) and intravitreal dosing following the 12IA7 IACUC protocol. Each rabbit received a bolus dose of test formulation either via topical ocular administration 3 times daily on Days 1 and 2 (at 0, 6, and 12 hours), and once on Day 3 (at 0 hours) into both eyes; via intravitreal administration into both eyes once on Day 1 (at 0 hours); or via subcutaneous administration 2 times daily on Days 1 and 2 (at 0 and 8 hours) and once daily on Day 3 (at 0 hours). Doses were given within an approximately 1 hour window each day where applicable.
# On Day 1, for intravitreal administration, or on Day 3, for topical ocular and subcutaneous administration, at the appropriate ocular tissue collection time points, animals were euthanized and both eyes were enucleated immediately. Following enucleation, each eye was rinsed with phosphate-buffered saline. Ocular tissue samples from both eyes of each animal were collected at predetermined time points and weights were recorded. All the samples were frozen immediately on dry ice, and stored at −60° C. to −80° C. pending bioanalysis.
# An LC-MS/MS method was developed for the determination of Compound 1 in rabbit aqueous tissues (plasma, aqueous and vitreous humor) and solid ocular tissue samples. A pre-study standard curve was analyzed to determine the specificity, range, and lower limit of quantitation of the method. Plasma and tissue homogenate study samples were extracted and analyzed. All the samples were treated identically to the standards.
# One eight-point standard curve was used in each analytical batch. To be accepted, each batch must have had at least five of eight standards with accuracy within ±20% of nominal, except at the lower limit of quantification (LLOQ), where ±25% was acceptable.
# Concentration versus time data is plotted in FIGS. 3-16. All data are expressed as ng/g of the free drug. Samples that were below the limit of quantitation (0.2 ng/mL) were not used in the calculation of averages.
# [1] = choroid, TABLE 16: Choroid, free acid, Group 3, read-out: Choroid Average
# [2] = cornea homogenate, Cornea homogenate, OD, sodium salt, intravitreal 2.5 mg/eye, Group 4, read-out: Cornea Conc. (ng/mL) OD
# [3] = cornea homogenate, Cornea homogenate, OS, sodium salt, intravitreal 2.5 mg/eye, Group 4, read-out: Cornea Conc. (ng/mL) OS
# [4] = cornea homogenate, Cornea homogenate, right eye, intravitreal 2.5 mg/eye (group 5), individual animals, read-out: Conc. (ng/mL) OD
# [5] = cornea homogenate, Cornea homogenate, left eye, intravitreal 2.5 mg/eye (group 5), individual animals, read-out: Conc. (ng/mL) OS
# [6] = cornea homogenate, Cornea homogenate, OD, free acid, Group 3, read-out: Cornea Conc. (ng/mL) OD
# [7] = cornea homogenate, Cornea homogenate, OS, free acid, Group 3, read-out: Cornea Conc. (ng/mL) OS
# [8] = cornea homogenate, Cornea homogenate, OS, sodium salt, Group 2, read-out: Cornea Conc. (ng/mL) OS
# [9] = cornea homogenate, Cornea homogenate, OD, sodium salt, Group 2, read-out: Cornea Conc. (ng/mL) OD
# [10] = cornea homogenate, TABLE 16: Cornea homogenate, OD, free acid, Group 3, read-out: Cornea Conc. (ng/mL) OD
# [11] = cornea homogenate, TABLE 16: Cornea homogenate, OS, free acid, Group 3, read-out: Cornea Conc. (ng/mL) OS
# [12] = cornea, Cornea, OD, sodium salt, intravitreal 2.5 mg/eye, Group 4, read-out: Cornea Conc. (ng/g) OD
# [13] = cornea, Cornea, OS, sodium salt, intravitreal 2.5 mg/eye, Group 4, read-out: Cornea Conc. (ng/g) OS
# [14] = cornea, Cornea, average, intravitreal 2.5 mg/eye (group 5), read-out: Avg.
# [15] = cornea, Cornea, right eye, intravitreal 2.5 mg/eye (group 5), individual animals, read-out: Conc. (ng/g) OD
# [16] = cornea, Cornea, sodium salt, intravitreal 2.5 mg/eye, Group 4, read-out: Cornea Avg.
# [17] = cornea, Cornea, left eye, intravitreal 2.5 mg/eye (group 5), individual animals, read-out: Conc. (ng/g) OS
# [18] = cornea, Cornea, OD, free acid, Group 3, read-out: Cornea Conc. (ng/g) OD
# [19] = cornea, Cornea, OS, sodium salt, Group 2, read-out: Cornea Conc. (ng/g) OS
# [20] = cornea, Cornea, free acid, Group 3, read-out: Cornea Average
# [21] = cornea, Cornea, sodium salt, Group 2, read-out: Cornea Average
# [22] = cornea, Cornea, OD, sodium salt, Group 2, read-out: Cornea Conc. (ng/g) OD
# [23] = cornea, TABLE 16: Cornea, OD, free acid, Group 3, read-out: Cornea Conc. (ng/g) OD
# [24] = cornea, TABLE 16: Cornea, free acid, Group 3, read-out: Cornea Average
smiles,measurement,setting,value
COC(=O)N[C@@H](Cc1ccccc1)C(=O)N[C@@H](Cc1ccc(NS(=O)(=O)O)cc1)c1csc(-c2cccs2)n1 [Compound 1],concentration at 2 h,"choroid, TABLE 16: Choroid, OS, free acid, Group 3, read-out: Choroid Conc. (ng/g) OS",53.2 ng/g
same,concentration at 2 h,[1],47.7 ng/g
same,concentration at 4 h,"choroid, TABLE 16: Choroid, OD, free acid, Group 3, read-out: Choroid Conc. (ng/g) OD",53 ng/g
same,concentration at 4 h,[1],61 ng/g
same,concentration at 6 hr,[2],6300 ng/mL
same,concentration at 6 hr,[3],6940 ng/mL
same,concentration at 6 hr,[4],7910 ng/mL
same,concentration at 24 hr,[2],2180 ng/mL
same,concentration at 24 hr,[3],1560 ng/mL
same,concentration at 24 hr,[5],1190 ng/mL
same,concentration at 24 hr,[4],1520 ng/mL
same,concentration at 48 hr,[2],1050 ng/mL
same,concentration at 48 hr,[3],662 ng/mL
same,concentration at 48 hr,[5],293 ng/mL
same,concentration at 48 hr,[4],437 ng/mL
same,concentration at 0.5 h,[6],0.55 ng/mL
same,concentration at 0.5 h,[7],0.897 ng/mL
same,concentration at 0.5 h,[8],2.46 ng/mL
same,concentration at 1 h,[6],1.11 ng/mL
same,concentration at 1 h,[9],2.37 ng/mL
same,concentration at 1 h,[8],4.52 ng/mL
same,concentration at 2 h,[6],0.514 ng/mL
same,concentration at 2 h,[8],0.998 ng/mL
same,concentration at 4 h,[6],0.942 ng/mL
same,concentration at 4 h,[9],0.752 ng/mL
same,concentration at 4 h,[7],2.51 ng/mL
same,concentration at 4 h,[8],0.784 ng/mL
same,concentration at 0.5 h,[10],0.55 ng/mL
same,concentration at 0.5 h,[11],0.897 ng/mL
same,concentration at 1 h,[10],1.11 ng/mL
same,concentration at 2 h,[10],0.514 ng/mL
same,concentration at 4 h,[10],0.942 ng/mL
same,concentration at 4 h,[11],2.51 ng/mL
same,concentration at 6 hr,[12],69300 ng/g
same,concentration at 6 hr,[13],76300 ng/g
same,concentration at 6 hr,[14],54600 ng/g
same,concentration at 6 hr,[15],87000 ng/g
same,concentration at 6 hr,[16],71400 ng/g
same,concentration at 24 hr,[12],24000 ng/g
same,concentration at 24 hr,[13],17200 ng/g
same,concentration at 24 hr,[14],17300 ng/g
same,concentration at 24 hr,[17],13100 ng/g
same,concentration at 24 hr,[15],16700 ng/g
same,concentration at 24 hr,[16],23700 ng/g
same,concentration at 48 hr,[12],11600 ng/g
same,concentration at 48 hr,[13],7280 ng/g
same,concentration at 48 hr,[14],4630 ng/g
same,concentration at 48 hr,[17],3220 ng/g
same,concentration at 48 hr,[15],4810 ng/g
same,concentration at 48 hr,[16],7530 ng/g
same,concentration at 72 hr,[14],762 ng/g
same,concentration at 72 hr,[16],421 ng/g
same,concentration at 0.5 h,[18],6.05 ng/g
same,concentration at 0.5 h,"cornea, Cornea, OS, free acid, Group 3, read-out: Cornea Conc. (ng/g) OS",9.87 ng/g
same,concentration at 0.5 h,[19],27.1 ng/g
same,concentration at 0.5 h,[20],7.96 ng/g
same,concentration at 0.5 h,[21],19.4 ng/g
same,concentration at 1 h,[18],12.2 ng/g
same,concentration at 1 h,[22],26.1 ng/g
same,concentration at 1 h,[19],25.3 ng/g
same,concentration at 1 h,[20],12.2 ng/g
same,concentration at 1 h,[21],31.1 ng/g
same,concentration at 2 h,[18],5.65 ng/g
same,concentration at 2 h,[22],11.7 ng/g
same,concentration at 2 h,[19],11 ng/g
same,concentration at 2 h,[20],5.65 ng/g
same,concentration at 2 h,[21],9.45 ng/g
same,concentration at 4 h,[18],10.4 ng/g
same,concentration at 4 h,[22],8.27 ng/g
same,concentration at 4 h,[19],8.62 ng/g
same,concentration at 4 h,[20],15.8 ng/g
same,concentration at 4 h,[21],10.1 ng/g
same,concentration at 0.5 h,[23],6.05 ng/g
same,concentration at 0.5 h,"cornea, TABLE 16: Cornea, OS, free acid, Group 3, read-out: Cornea Conc. (ng/g) OS",9.87 ng/g
same,concentration at 0.5 h,[24],7.96 ng/g
same,concentration at 1 h,[23],12.2 ng/g
same,concentration at 1 h,[24],12.2 ng/g
same,concentration at 2 h,[23],5.65 ng/g
same,concentration at 2 h,[24],5.65 ng/g
